Organism: Rattus norvegicus
Assay: Inhibition of rat recombinant geranylgeranyltransferase type I expressed in Escherichia coli assessed as residual enzyme activity for geranylgeranylation of K-Ras4B at 50 uM incubated for 30 mins in presence of [3H]GGPP by scintillation counting assay relative to control

| Compound | Activity |
| --- | --- |
| COc1ccc([C@@H]2C[C@@H](Sc3ccccc3)[C@H](C(=O)O)CN2S(=O)(=O)c2ccccc2C)cc1 | 84.8% |
| Cc1ccc([C@@H]2C[C@@H](SCc3ccc(C(C)(C)C)cc3)[C@H](C(=O)O)CN2S(=O)(=O)c2ccccc2C)cc1 | 69.5% |
| CCOc1ccc([C@@H]2C[C@@H](SCC)[C@H](C(=O)O)CN2S(=O)(=O)c2ccc(C)cc2)cc1 | 87.1% |
| CCS[C@@H]1C[C@@H](c2ccc(OC)cc2)N(S(=O)(=O)c2ccccc2)C[C@H]1C(=O)O | 89.9% |
| COc1ccc([C@@H]2CC=C(C(=O)O)[C@H](c3ccc(Cl)cc3)N2S(=O)(=O)c2ccc(C)cc2)cc1OC | 83.2% |
| CCCCS[C@@H]1C[C@@H](c2ccc(CC)cc2)N(S(=O)(=O)c2ccc(C)cc2)C[C@H]1C(=O)O | 58.3% |
| CS(=O)(=O)N1[C@@H](c2ccc(F)cc2)C(C(=O)O)=CC[C@H]1c1ccc(Cl)cc1 | 50.2% |
| CCCCS[C@@H]1C[C@@H](c2ccc(OC)cc2)N(S(=O)(=O)c2ccc(Cl)cc2)C[C@H]1C(=O)O | 72.9% |
| CCCCS[C@@H]1C[C@@H](c2ccc(C)cc2)N(S(C)(=O)=O)C[C@H]1C(=O)O | 104% |
| COc1ccc([C@@H]2C[C@@H](Sc3ccc(Cl)cc3)[C@H](C(=O)O)CN2S(=O)(=O)c2ccc(C)cc2)cc1OC | 107% |
| Cc1ccc([C@@H]2C[C@@H](SCc3ccccc3)[C@H](C(=O)O)CN2S(=O)(=O)c2ccccc2)cc1 | 47.4% |
| CCCCCS[C@@H]1C[C@@H](c2ccc(OC)cc2)N(S(=O)(=O)c2ccccc2C)C[C@H]1C(=O)O | 67.1% |
| COc1ccc([C@@H]2C[C@@H](SCc3ccc(Cl)cc3)[C@H](C(=O)O)CN2S(=O)(=O)c2ccc(C)cc2)cc1OC | 69.1% |
| CC(C)(C)c1ccc([C@H]2C(C(=O)O)=CC[C@@H](c3ccc(Cl)cc3)N2S(C)(=O)=O)cc1 | 60.4% |
| COc1ccc([C@@H]2CC=C(C(=O)O)[C@H](c3cccc(Cl)c3)N2S(=O)(=O)c2ccc(C)cc2)cc1OC | 87.8% |
| COc1ccc(S[C@@H]2C[C@@H](c3ccc4c(c3)OCO4)N(S(=O)(=O)c3ccc(C)cc3)C[C@H]2C(=O)O)cc1 | 100% |
| COc1ccc([C@@H]2C[C@@H](SCCC(C)C)[C@H](C(=O)O)CN2S(=O)(=O)c2ccc(C)cc2)cc1 | 90% |
| Cc1ccc([C@H]2C(C(=O)O)=CC[C@@H](c3ccc(C)cc3)N2S(C)(=O)=O)cc1 | 78% |
| COc1ccc([C@@H]2CC=C(C(=O)O)[C@H](c3ccc(Br)cc3)N2S(=O)(=O)c2ccc(Cl)cc2)cc1 | 76.2% |
| CCCCCCS[C@@H]1C[C@@H](c2ccc(OC)c(OC)c2)N(S(=O)(=O)c2ccc(C)cc2)C[C@H]1C(=O)O | 97.2% |
| Cc1ccc([C@@H]2CC=C(C(=O)O)[C@H](c3ccc(C(C)(C)C)cc3)N2S(=O)(=O)c2ccc(Cl)cc2)cc1 | 74.4% |

| Compound | Activity |
| --- | --- |
| Cc1ccc([C@@H]2CC=C(C(=O)O)[C@H](c3ccc(Br)cc3)N2S(=O)(=O)c2ccccc2)cc1 | 78.4% |
| COc1ccc(S[C@@H]2C[C@@H](c3ccc(OC)cc3)N(S(=O)(=O)c3ccccc3C)C[C@H]2C(=O)O)cc1 | 82.2% |
| CCc1ccc([C@@H]2C[C@@H](SCC(C)C)[C@H](C(=O)O)CN2S(=O)(=O)c2ccc(C)cc2)cc1 | 68.5% |
| Cc1ccc([C@@H]2CC=C(C(=O)O)[C@H](c3ccc(Br)cc3)N2S(=O)(=O)c2ccccc2C)cc1 | 82% |
| Cc1cccc([C@H]2C(C(=O)O)=CC[C@@H](c3ccc(Cl)cc3)N2S(=O)(=O)c2ccc(Cl)cc2)c1 | 89.5% |
| CCCCCS[C@@H]1C[C@@H](c2ccc(OC)c(OC)c2)N(S(=O)(=O)c2ccc(C)cc2)C[C@H]1C(=O)O | 109% |
| Cc1ccc(S[C@@H]2C[C@@H](c3ccc(C)cc3)N(S(=O)(=O)c3ccccc3C)C[C@H]2C(=O)O)cc1 | 92.4% |
| COc1ccc(S[C@@H]2C[C@@H](c3cccc(Br)c3)N(S(=O)(=O)c3ccc(C)cc3)C[C@H]2C(=O)O)cc1 | 81.4% |
| COc1ccc([C@@H]2C[C@@H](SCCC(C)C)[C@H](C(=O)O)CN2S(=O)(=O)c2ccc(C)cc2)cc1OC | 91.1% |
| COc1ccc([C@@H]2C[C@@H](SCCC(C)C)[C@H](C(=O)O)CN2S(=O)(=O)c2ccccc2C)cc1 | 65.9% |
| Cc1ccc(S(=O)(=O)N2[C@@H](c3cccc(Cl)c3)C(C(=O)O)=CC[C@H]2c2ccc(C#N)cc2)cc1 | 70.9% |
| CCCCCS[C@@H]1C[C@@H](c2ccc(C)cc2)N(S(=O)(=O)c2ccc(C)cc2)C[C@H]1C(=O)O | 74.3% |
| COc1ccc([C@@H]2CC=C(C(=O)O)[C@H](c3ccc(Br)cc3)N2S(=O)(=O)c2ccccc2C)cc1 | 63.7% |
| CCOc1ccc([C@@H]2C[C@@H](SCCC(C)C)[C@H](C(=O)O)CN2S(=O)(=O)c2ccc(C)cc2)cc1 | 95.9% |
| Cc1ccc(S(=O)(=O)N2[C@@H](c3ccc(Cl)cc3)C(C(=O)O)=CC[C@H]2c2ccc(C(C)C)cc2)cc1 | 57.6% |
| Cc1ccc([C@H]2C(C(=O)O)=CC[C@@H](c3ccc(C#N)cc3)N2S(=O)(=O)c2ccc(C)cc2)cc1 | 90.9% |
| COc1ccc([C@@H]2CC=C(C(=O)O)[C@H](c3cccc(F)c3)N2S(=O)(=O)c2ccccc2)cc1 | 91.8% |
| CCS[C@@H]1C[C@@H](c2ccc(OC)cc2)N(S(=O)(=O)c2ccccc2C)C[C@H]1C(=O)O | 71.1% |
| COc1ccc([C@@H]2CC=C(C(=O)O)[C@H](c3cccc(C)c3)N2S(=O)(=O)c2ccccc2)cc1 | 72.6% |
| COc1ccc([C@@H]2CC=C(C(=O)O)[C@H](c3ccc(C(C)(C)C)cc3)N2S(=O)(=O)c2ccccc2C)cc1 | 70.7% |
| CCCCCS[C@@H]1C[C@@H](c2ccc(C)cc2)N(S(=O)(=O)c2ccccc2C)C[C@H]1C(=O)O | 62.9% |

Continued, values first:

| Activity | Compound |
| --- | --- |
| 87.5% | Cc1ccc([C@H]2C(C(=O)O)=CC[C@@H](c3ccccc3)N2S(=O)(=O)c2ccc(C)cc2)cc1 |
| 71.2% | Cc1ccc(S(=O)(=O)N2[C@@H](c3cccc(Br)c3)C(C(=O)O)=CC[C@H]2c2ccccc2F)cc1 |
| 54.5% | Cc1ccc([C@@H]2CC=C(C(=O)O)[C@H](c3cccc(F)c3)N2S(=O)(=O)c2ccc(Cl)cc2)cc1 |
| 88.3% | Cc1ccc(S(=O)(=O)N2[C@@H](c3cccc(F)c3)C(C(=O)O)=CC[C@H]2c2ccc(C#N)cc2)cc1 |
| 75.3% | CCCCCCS[C@@H]1C[C@@H](c2ccccc2F)N(S(=O)(=O)c2ccc(C)cc2)C[C@H]1C(=O)O |
| 99.8% | Cc1ccc([C@H]2C(C(=O)O)=CC[C@@H](c3ccc(C)cc3)N2S(=O)(=O)c2ccccc2)cc1 |
| 67.4% | Cc1ccc([C@H]2C(C(=O)O)=CC[C@@H](c3cccc(Br)c3)N2S(=O)(=O)c2ccc(C)cc2)cc1 |
| 99.7% | COc1ccc([C@@H]2C=CCCN2S(=O)(=O)c2ccc(C)cc2)cc1 |
| 63.7% | Cc1ccc(S(=O)(=O)N2[C@@H](c3cccc(F)c3)C(C(=O)O)=CC[C@H]2c2ccccc2)cc1 |
| 54.8% | Cc1ccc([C@H]2C(C(=O)O)=CC[C@@H](c3ccc(F)cc3)N2S(=O)(=O)c2ccc(C)cc2)cc1 |
| 60.5% | Cc1ccc(S(=O)(=O)N2[C@@H](c3cccc(C)c3)C(C(=O)O)=CC[C@H]2c2cccc(F)c2)cc1 |
| 94.8% | CCS[C@@H]1C[C@@H](c2ccccc2)N(S(=O)(=O)c2ccc(C)cc2)C[C@H]1C(=O)O |
| 65.8% | COc1cccc([C@@H]2CC=C(C(=O)O)[C@H](c3ccc(Br)cc3)N2S(=O)(=O)c2ccc(C)cc2)c1 |
| 80.8% | CC(=O)C1=CC[C@@H](c2ccccc2F)N(S(=O)(=O)c2ccc(C)cc2)C1 |
| 98.6% | COc1cccc([C@@H]2CC=C(C(=O)O)[C@H](c3cccc(C)c3)N2S(=O)(=O)c2ccc(C)cc2)c1 |
| 79.3% | Cc1ccc([C@@H]2C[C@@H](SCCC(C)C)[C@H](C(=O)O)CN2S(=O)(=O)c2ccccc2)cc1 |
| 69.4% | Cc1ccc([C@@H]2CC=C(C(=O)O)[C@H](c3cccc(Cl)c3)N2S(=O)(=O)c2ccc(C)cc2)cc1 |
| 68.1% | Cc1ccc(S(=O)(=O)N2[C@@H](c3ccc(F)cc3)C(C(=O)O)=CC[C@H]2c2ccccc2)cc1 |

| Activity | Compound |
| --- | --- |
| 45.1% | Cc1ccc(S(=O)(=O)N2[C@@H](c3cccc(F)c3)C(C(=O)O)=CC[C@H]2c2ccc(Cl)c(Cl)c2)cc1 |
| 68.1% | Cc1ccc(S(=O)(=O)N2[C@@H](c3ccc(C(C)(C)C)cc3)C(C(=O)O)=CC[C@H]2c2cccs2)cc1 |
| 88.2% | COc1ccc([C@@H]2CC=C(C(=O)O)[C@H](c3ccc(C)cc3)N2S(=O)(=O)c2ccccc2)cc1 |
| 85% | COc1cccc([C@@H]2CC=C(C(C)=O)CN2S(=O)(=O)c2ccc(C)cc2)c1 |
| 69.7% | Cc1ccc(S(=O)(=O)N2[C@@H](c3ccc(Cl)cc3)C(C(=O)O)=CC[C@H]2c2ccccc2)cc1 |
| 98.9% | C=CCS[C@@H]1C[C@@H](c2ccccc2)N(S(=O)(=O)c2ccc(C)cc2)C[C@H]1C(=O)O |
| 65.9% | Cc1ccc(S(=O)(=O)N2[C@@H](c3cccc(Br)c3)C(C(=O)O)=CC[C@H]2c2ccccc2)cc1 |
| 99.1% | COc1ccc(S[C@@H]2C[C@@H](c3ccccc3)N(S(=O)(=O)c3ccc(C)cc3)C[C@H]2C(=O)O)cc1 |
| 69.8% | COc1ccc([C@@H]2CC=C(C(=O)O)[C@H](c3ccc(F)cc3)N2S(=O)(=O)c2ccc(C)cc2)cc1OC |
| 54.1% | COc1cccc([C@@H]2CC=C(C(=O)O)[C@H](c3ccc(Cl)cc3)N2S(=O)(=O)c2ccc(C)cc2)c1 |
| 65% | COc1cccc([C@@H]2CC=C(C(=O)O)[C@H](c3ccc(F)cc3)N2S(=O)(=O)c2ccc(C)cc2)c1 |
| 67.1% | Cc1ccc(S(=O)(=O)N2[C@@H](c3cccc(Br)c3)C(C(=O)O)=CC[C@H]2c2cccc(F)c2)cc1 |
| 73.6% | CCc1ccc([C@@H]2CC=C(C(=O)O)[C@H](c3cccc(Cl)c3)N2S(=O)(=O)c2ccc(C)cc2)cc1 |
| 74.7% | Cc1ccc(S(=O)(=O)N2[C@@H](c3ccc(Cl)cc3)C(C(=O)O)=CC[C@H]2c2cccc(C)c2)cc1 |
| 90.1% | CCS[C@@H]1C[C@@H](c2ccc(C)cc2)N(S(=O)(=O)c2ccc(C)cc2)C[C@H]1C(=O)O |
| 83.7% | COc1cc([C@@H]2C[C@@H](Sc3ccccc3)[C@H](C(=O)O)CN2S(=O)(=O)c2ccc(C)cc2)cc(OC)c1OC |
| 59.2% | Cc1ccc(S(=O)(=O)N2[C@@H](c3cccc(Cl)c3)C(C(=O)O)=CC[C@H]2c2ccc(Cl)cc2)cc1 |
